Patent US9131722B2, “Composition comprising the extract of Actinidia arguta and related species for the prevention and treatment of allergic disease and non-allergic inflammatory disease” (VIROMED CO., LTD., priority 2002, dated 2015)

Key:
[1] = test system: mice peritoneal mast cells; assay: Inhibition of histamine release from mice peritoneal mast cells; format: cell-based; conditions: Mus musculus, Mast cell, 0.5 h; anti-DNP24-BSA IgE sensitized, DNP24-BSA 20 ng/ml 30 min; extract 100 μg/ml, Cromolyn 10^−4 M
Protocol: Each mouse was anesthetized with ether, and injected with 20 ml of Tyrode buffer B (NaCl, glucose, NaHCO3, KCl, NaH2PO4) containing 0.1% gelatin into the peritoneal cavity; then the abdomen was gently massaged for about 90 seconds. The peritoneal cavity was carefully opened, and the fluid containing peritoneal cells was aspirated by pasteur pipette. The peritoneal cells were then sedimented at 150×g for 10 min. at room temperature and resuspended in Tyrode buffer B. Mast cells were separated from the major components of rat peritoneal cells as described in the literature (Yurt et al., J Exp Med., 1; 146(5), pp 1405-19, 1977). Peritoneal cells suspended in 1 ml of Tyrode buffer B were layered onto 2 ml of 0.225 g/ml metrizamide (density 1.120 g/ml) and centrifuged at room temperature for 15 min at 400×g. […] Mast cells were stimulated with 20 ng/ml of DNP24-BSA as an antigen for 30 min., and histamine released into the medium was measured by […]). Inhibition of histamine release was calculated as following empirical formula 1; Percent inhibition=100×(A-B)/(A-C) [Empirical Formula 1] • A: Stimulated level (Histamine release with IgE-stimulation). • B: Suppressed level (Histamine release with IgE-stimulation and drug treatment). • C: Basal level (Histamine release without IgE-stimulation).

[2] = test system: edema induced by arachidonic acid in the ears of mice; assay: Edema induced by arachidonic acid in the ears of mice; format: in vivo; conditions: BALB/c, p.o. 1 hour before arachidonic acid, extract 200 mg/kg, indomethacin 10 mg/kg
Protocol: 15 mice (8 week old male BALB/c) were fasted for 18 hours with free access to water and divided into 3 groups. Inflammation was induced by topical application of arachidonic acid (0.5 mg/20 μl acetone) to the right ear of each mouse. The left ear was used as a negative control and received the vehicle (20 μl acetone). The hardy kiwifruit extract (200 mg/kg in water) was administered p.o. 1 hour prior to arachidonic acid application. The positive control group received indomethacin (10 mg/kg, p.o.) 1 hour before arachidonic acid application. Inflammation was followed for 1 hour and thereafter the animals were sacrificed. A section of 6 mm diameter disc from each ear was obtained and weighed. The edema index was assessed using the increase in the weight of the treated right ear punch biopsy over that of the untreated left ear.

U266B1 cell line = assay: Inhibition of IgE production in LPS-stimulated U266B1 cell line (ELISA); format: cell-based, human; conditions: 7 days
Protocol: To confirm the inhibitory effect of hardy kiwifruit extraction on IgE production, U266B1 cell (lymphoblastoma cell line) was used. U266B1 is cell line of human B cell, which produces IgE.
U266B1 cells (American Type Culture Collection, Manassas, Va.) was cultured at 37° C. under 5% CO2 circumstances in 24-well culture plate containing RPMI-1640 medium (15% FBS, 2 mM L-glutamine, 10 mM HEPES, 1 mM sodium pyruvate, 50 μg streptomycin and 100 U/ml penicillin). […] Control was treated with 2 μM dexamethasone or medium (RPMI-1640). After treatment, cells were cultured for 7 days and IgE concentration of medium was measured by ELISA kit (PharMingen; San Diego, Calif.).
Silica gel column chromatography fraction [1], [2], [3] and [4] were treated to U266B1 cell line (at 10 μg/ml).

[3] = test system: ovalbumin-sensitized mouse; assay: Ovalbumin-sensitized mouse model: ovalbumin-specific IgE, IgG1, IgG2a, IgG2b in serum (ELISA); format: in vivo; conditions: BALB/c, oral 11 days, extract 300 μg/mouse/day, dexamethasone 10 μg/mouse/day
Protocol: The ovalbumin-sensitized mouse model is commonly used as animal model of allergy. Female BALB/c mice, aged 6 weeks (Seoul national university animal experimental center) were adapted to the environment for 7 days. At the time of 7 weeks after birth, 100 μl of emulsion, mixed 25 μg of ovalbumin (chicken egg albumin, crude grade V, Sigma Co., Ltd.) with 2.25 mg of aluminum hydroxide (ImujectAlum, Pierce Co., Ltd.) was injected into mouse peritoneal cavity and 14 days after, it was injected once more for boosting.
And then 30 mice were divided into 3 groups and each group was orally administered with the hardy kiwifruit water extract of Example 1-1 (300 μg/mouse/day), dexamethasone (10 μg/mouse/day), or drinking water (100 μg/mouse/day) for 11 days, respectively. On the 25th day, mice were sacrificed and blood serum and spleen was collected therefrom.
In serum collected in Example 2-1, the serum levels of ovalbumin-specific IgE, IgG1, IgG2a and IgG2b were measured by ELISA kits (PharMingen Co., Ltd).

[4] = test system: splenocytes of ovalbumin-sensitized mouse; assay: Ovalbumin-sensitized mouse model: expression of cytokines by splenocytes re-stimulated with ovalbumin (ELISA); format: in vivo; conditions: splenocytes of OVA-stimulated mouse, ovalbumin 100 μg/ml, 3 days
Protocol: The ovalbumin-sensitized mouse model is commonly used as animal model of allergy. Female BALB/c mice, aged 6 weeks (Seoul national university animal experimental center) were adapted to the environment for 7 days.
On the 25th day, mice were sacrificed and blood serum and spleen was collected therefrom.
Each prepared splenocytes was pooled and homogenized under an aseptic condition.
Splenocytes prepared as above were inoculated in 24-well plate (5×10^6 cell/ml/well), treated with 100 μg/ml of ovalbumin, and incubated at 37° C. under an atmosphere containing 5% CO2 for 3 days. After cultivation was finished, a culture solution was gathered and then the concentration of cytokines (IL-4, IL-5, IL-12 and interferon-γ) related to allergy were measured by commercial ELISA kits.

Nc/Nga mouse = Nc/Nga mouse model of atopic dermatitis: scratching and serum IgE, IgG1, IgG2a; format: in vivo; conditions: oral 8 weeks, extract 300 μg/mouse/day, dexamethasone 10 μg/mouse/day, 16 weeks old
Protocol: To confirm anti-allergic effect of hardy kiwifruit extract in animals, Nc/Nga mouse model that has been widely used as an animal model for human atopic dermatitis study was employed.
(§1) For experiment, 15 of Nc/Nga mice (7 weeks after birth, female) were divided into 3 groups and adapted to new circumstance for 1 week. Since 8 weeks after birth, the hardy kiwifruit extract (300 μg/mouse/day) prepared in example 1-1 as a treatment group had been orally administered and dexamethasone (10 μg/mouse/day) or drinking water (100 μg/mouse/day) as control groups had been orally administered for 8 weeks. To compare the progress of dermatitis symptom, the scratching frequency of mouse (the time spent scratching during 20 min-observation) was measured when mice is grown at the age of 12 and 14 weeks. 16 weeks old mouse was sacrificed and the quantity of IgE, IgG1 and IgG2a level in serum were measured by ELISA method. Also, to compare the production of Th1/Th2 cytokines, splenocyte was prepared by conventional method from each mouse, transferred into 24-well plate (5×10^6 cells/ml/well) and incubated with ConA (1 μg/ml) for 3 days and then the levels of IL-4, IL-5, IL-12, and Interferon-γ were measured by ELISA method.

[5] = test system: splenocytes of Nc/Nga mouse; assay: Nc/Nga mouse model: Th1/Th2 cytokine production by ConA-stimulated splenocytes; format: in vivo; conditions: ConA 1 μg/ml, 3 days
Protocol: as §1, with “Since 8 weeks after birth, the hardy kiwifruit extract (300 μg/mouse/day) prepared in example 1-1 as a treatment group had been orally administered and dexamethasone (10 μg/mouse/day) or drinking water (100 μg/mouse/day) as control groups had been orally administered for 8 weeks.” left out

O=C(O)c1cc(=O)c2c(OCC(O)COc3cccc4oc(C(=O)O)cc(=O)c34)cccc2o1 [Cromolyn]
inhibition at 100 µM [1]: 52 ± 13%

COc1ccc2c(c1)c(CC(=O)O)c(C)n2C(=O)c1ccc(Cl)cc1 [Indomethacin, indomethacin]
Index of edema ([2]; control 7.2 ± 1.1): 1.3 ± 0.3 mg | inhibition at 10 mg/kg ([2]; Mus musculus, po, read-out: Inhibition rate (%)): 81.9%

C[C@@H]1C[C@H]2[C@@H]3CCC4=CC(=O)C=C[C@]4(C)[C@@]3(F)[C@@H](O)C[C@]2(C)[C@@]1(O)C(=O)CO [Dexamethasone, dexamethasone]
IgE (IU/ml) (U266B1 cell line; U266B1, LPS 2 μg/ml, extracts 100 μg/ml, dexamethasone 2 μM, LPS+medium 392.9, no LPS 187.8): 203.6 ± 30.9 IU/ml | IgE (IU/ml) (U266B1 cell line; U266B1, LPS stimulation, fractions at 30 μg/ml, LPS+medium 212.5, no LPS 117.4): 138.9 ± 2.1 IU/ml | IgE (IU/ml) (U266B1 cell line; U266B1, LPS stimulation, silica gel fractions at 10 μg/ml, LPS+medium 540.4, no LPS 379.7): 277.6 ± 12.4 IU/ml | ovalbumin-specific IgG2b in serum ([3]; normal 1.0, drinking water 1.4, the values are: IgG2b relative to normal mice): 1.2 ± 0.1 | ovalbumin-specific IgG2a in serum ([3]; normal 1.0, drinking water 2.1, the values are: IgG2a relative to normal mice): 1.9 ± 0.4 | ovalbumin-specific IgG1 in serum ([3]; normal 1.0, drinking water 5.1, the values are: IgG1 relative to normal mice): 3.1 ± 0.3 | ovalbumin-specific IgE in serum ([3]; normal 1.0, drinking water 7.6, the values are: IgE relative to normal mice): 2 ± 0.6 | IL-4 ([4]; drinking water 159.5, normal mouse 21.6): 23.2 ± 8.7 pg/mL | IL-12 ([4]; drinking water 906.2, normal mouse 1626.0): 297.7 ± 16.4 pg/mL | Interferon-γ ([4]; drinking water 1016.0, normal mouse 14.1): 470.5 ± 38.6 pg/mL | IL-5 ([4]; drinking water 2573.6, normal mouse 0.5): 884.1 ± 80.7 pg/mL | IgG2a in serum (Nc/Nga mouse; drinking water 177.5): 148.0 ± 14.8 pg/mL | IgG1 in serum (Nc/Nga mouse; drinking water 242.2): 247.3 ± 10.8 pg/mL | IgE in serum (Nc/Nga mouse; drinking water 1572.9): 130.0 ± 55.3 pg/mL | IL-4 ([5]; drinking water 151.9): 42.7 ± 19.4 pg/mL | IL-5 ([5]; drinking water 778.3): 646.5 ± 51.7 pg/mL | IL-12 ([5]; drinking water 1925.7): 201.2 ± 12.1 pg/mL | Interferon-γ ([5]; drinking water 10407.5): 10096.4 ± 192.4 pg/mL
